Measurements from PubChem BioAssay AID1963975 (Molecular Pharmacology Branch, DTP, NCI, 2024).

Test system: 624824-186-R-J2-PDC multicell spheroids, viability
Assay: Anticancer human tumor 624824-186-R-J2-PDC patient-derived colon adenocarcinoma cell line growth inhibition [PI3K]
Conditions: for IC50: curve of first compound; for viability, T/C: stronger effect = lower value; active means viability on the fitted dose curve at most 10% of control; inactive means the rest
Summary of the method: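 High-throughput combination screen: PI3K inhibitors crossed with targeted small molecules on complex spheroids of tumor cells, HUVEC and MSCs at 37 degrees C, 5% CO2. Top concentration was at or near clinical Cmax (otherwise 10 microM), with half-log decrements.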

[1] = second compound 0.00316 µM, first compound 0.0316 µM
[2] = second compound 0.00316 µM, first compound 0.1 µM
[3] = second compound 0.01 µM, first compound 0.0316 µM
[4] = second compound 0.01 µM, first compound 0.1 µM
[5] = second compound 0.0316 µM, first compound 0.0316 µM
[6] = second compound 0.0316 µM, first compound 0.1 µM
[7] = second compound 0.1 µM, first compound 0.0316 µM
[8] = second compound 0.1 µM, first compound 0.1 µM
[9] = second compound 0.316 µM, first compound 0.0316 µM
[10] = second compound 0.316 µM, first compound 0.1 µM
[11] = second compound 1 µM, first compound 0.0316 µM
[12] = second compound 1 µM, first compound 0.1 µM
[13] = second compound 0.00316 µM, first compound 0.316 µM
[14] = second compound 0.00316 µM, first compound 1 µM
[15] = second compound 0.00316 µM, first compound 3.16 µM
[16] = second compound 0.00316 µM, first compound 10 µM
[17] = second compound 0.01 µM, first compound 0.316 µM
[18] = second compound 0.01 µM, first compound 1 µM
[19] = second compound 0.01 µM, first compound 3.16 µM
[20] = second compound 0.01 µM, first compound 10 µM
[21] = second compound 0.0316 µM, first compound 0.316 µM
[22] = second compound 0.0316 µM, first compound 1 µM
[23] = second compound 0.0316 µM, first compound 3.16 µM
[24] = second compound 0.0316 µM, first compound 10 µM
[25] = second compound 0.1 µM, first compound 0.316 µM
[26] = second compound 0.1 µM, first compound 1 µM
[27] = second compound 0.1 µM, first compound 3.16 µM
[28] = second compound 0.1 µM, first compound 10 µM
[29] = second compound 0.316 µM, first compound 0.316 µM
[30] = second compound 0.316 µM, first compound 1 µM
[31] = second compound 0.316 µM, first compound 3.16 µM
[32] = second compound 0.316 µM, first compound 10 µM
[33] = second compound 1 µM, first compound 0.316 µM
[34] = second compound 1 µM, first compound 1 µM
[35] = second compound 1 µM, first compound 3.16 µM
[36] = second compound 1 µM, first compound 10 µM
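Further: spheroids exposed to agents for 7 days before viability read.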
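Wherever viability, T/C is given: 100% = DMSO vehicle treated spheroids.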

Cn1ncnc1[C@H]1c2n[nH]c(=O)c3cc(F)cc(c23)N[C@@H]1c1ccc(F)cc1 + COc1c(OCCCN2CCOCC2)ccc2c3n(c(=NC(=O)c4cnc(N)nc4)nc12)CCN3
inactive: viability, T/C (second compound 0.00316 µM, first compound 0.000316 µM) 93.9% | viability, T/C (second compound 0.00316 µM, first compound 0.001 µM) 83.3% | viability, T/C (second compound 0.00316 µM, first compound 0.00316 µM) 96.7% | viability, T/C (second compound 0.00316 µM, first compound 0.01 µM) 72% | viability, T/C [1] 88.8% | viability, T/C [2] 78.4% | viability, T/C (second compound 0.01 µM, first compound 0.000316 µM) 94.2% | viability, T/C (second compound 0.01 µM, first compound 0.001 µM) 81.2% | viability, T/C (second compound 0.01 µM, first compound 0.00316 µM) 79.8% | viability, T/C (second compound 0.01 µM, first compound 0.01 µM) 84.5% | viability, T/C [3] 93.3% | viability, T/C [4] 77.7% | viability, T/C (second compound 0.0316 µM, first compound 0.000316 µM) 90.2% | viability, T/C (second compound 0.0316 µM, first compound 0.001 µM) 81.9% | viability, T/C (second compound 0.0316 µM, first compound 0.00316 µM) 84.1% | viability, T/C (second compound 0.0316 µM, first compound 0.01 µM) 83.1% | viability, T/C [5] 88% | viability, T/C [6] 95.6% | viability, T/C (second compound 0.1 µM, first compound 0.000316 µM) 72.2% | viability, T/C (second compound 0.1 µM, first compound 0.001 µM) 77.4% | viability, T/C (second compound 0.1 µM, first compound 0.00316 µM) 70.6% | viability, T/C (second compound 0.1 µM, first compound 0.01 µM) 73.7% | viability, T/C [7] 84.9% | viability, T/C [8] 76.8% | viability, T/C (second compound 0.316 µM, first compound 0.000316 µM) 71.1% | viability, T/C (second compound 0.316 µM, first compound 0.001 µM) 65.2% | viability, T/C (second compound 0.316 µM, first compound 0.00316 µM) 61.7% | viability, T/C (second compound 0.316 µM, first compound 0.01 µM) 62.6% | viability, T/C [9] 76.3% | viability, T/C [10] 60.9% | viability, T/C (second compound 1 µM, first compound 0.000316 µM) 55.7% | viability, T/C (second compound 1 µM, first compound 0.001 µM) 50.2% | viability, T/C (second compound 1 µM, first compound 0.00316 µM) 55.9% | viability, T/C (second compound 1 µM, first compound 0.01 µM) 56.6% | viability, T/C [11] 63.6% | viability, T/C [12] 60.8%
> 0.1 µM: IC50 (second compound 0.00316 µM) | IC50 (second compound 0.01 µM) | IC50 (second compound 0.0316 µM) | IC50 (second compound 0.1 µM) | IC50 (second compound 0.316 µM) | IC50 (second compound 1 µM)

CCCS(=O)(=O)Nc1ccc(F)c(C(=O)c2c[nH]c3ncc(-c4ccc(Cl)cc4)cc23)c1F + CC(Nc1ccc2c(c1)OCCn1cc(N3C(=O)OCC3C(F)F)nc1-2)C(N)=O
7.85 µM: IC50 (second compound 0.0316 µM)
6.22 µM: IC50 (second compound 0.1 µM)
inactive: viability, T/C [1] 78.1% | viability, T/C [2] 112% | viability, T/C [13] 87.8% | viability, T/C [14] 119% | viability, T/C [15] 113% | viability, T/C [16] 50% | viability, T/C [3] 92.7% | viability, T/C [4] 89.7% | viability, T/C [17] 73.6% | viability, T/C [18] 82.7% | viability, T/C [19] 109% | viability, T/C [20] 43.5% | viability, T/C [5] 82.7% | viability, T/C [6] 88.3% | viability, T/C [21] 73.5% | viability, T/C [22] 89.1% | viability, T/C [23] 108% | viability, T/C [24] 39.7% | viability, T/C [7] 80% | viability, T/C [8] 89.8% | viability, T/C [25] 81.9% | viability, T/C [26] 72.3% | viability, T/C [27] 76.3% | viability, T/C [28] 32.7% | viability, T/C [9] 67.9% | viability, T/C [10] 78.5% | viability, T/C [29] 71.7% | viability, T/C [30] 68% | viability, T/C [31] 62.1% | viability, T/C [32] 26.8% | viability, T/C [11] 80.5% | viability, T/C [12] 68.6% | viability, T/C [33] 68.7% | viability, T/C [34] 53.2% | viability, T/C [35] 63.1% | viability, T/C [36] 23.8%
3.58 µM: IC50 (second compound 1 µM)
8.49 µM: IC50 (second compound 0.01 µM)
10 µM: IC50 (second compound 0.00316 µM)
4.65 µM: IC50 (second compound 0.316 µM)

C=CC(=O)N1CCN(c2nc(=O)n(-c3c(C)ccnc3C(C)C)c3nc(-c4c(O)cccc4F)c(F)cc23)C(C)C1 (stereo unspecified) + CC(Nc1ccc2c(c1)OCCn1cc(N3C(=O)OCC3C(F)F)nc1-2)C(N)=O
inactive: viability, T/C [1] 103% | viability, T/C [2] 88.3% | viability, T/C [13] 94.2% | viability, T/C [14] 97.8% | viability, T/C [15] 117% | viability, T/C [16] 110% | viability, T/C [3] 92.6% | viability, T/C [4] 88% | viability, T/C [17] 88.3% | viability, T/C [18] 87.7% | viability, T/C [19] 80.3% | viability, T/C [20] 96.9% | viability, T/C [5] 109% | viability, T/C [6] 92.3% | viability, T/C [21] 105% | viability, T/C [22] 87.3% | viability, T/C [23] 101% | viability, T/C [24] 85.4% | viability, T/C [7] 112% | viability, T/C [8] 82.1% | viability, T/C [25] 106% | viability, T/C [26] 104% | viability, T/C [27] 81.2% | viability, T/C [28] 103% | viability, T/C [9] 83.3% | viability, T/C [10] 104% | viability, T/C [29] 107% | viability, T/C [30] 84.1% | viability, T/C [31] 88.7% | viability, T/C [32] 79.2% | viability, T/C [11] 90.7% | viability, T/C [12] 90% | viability, T/C [33] 81.1% | viability, T/C [34] 92.4% | viability, T/C [35] 85.6% | viability, T/C [36] 78%
> 10 µM: IC50 (second compound 0.00316 µM) | IC50 (second compound 0.01 µM) | IC50 (second compound 0.0316 µM) | IC50 (second compound 0.1 µM) | IC50 (second compound 0.316 µM) | IC50 (second compound 1 µM)
